# Results published in patent publication US20240181049A1, “HARNESSING THE POWER OF MICROBIOTA AND METABOLITES FOR THE TREATMENT OF CANCER” (UTI LIMITED PARTNERSHIP, priority 2019, published 2024).
# Tested on: naïve OVA323-339-specific OT-II CD4^+ T cells
# Experiment: BMDC / naive OT-II CD4+ T cell co-culture, Th1 differentiation
# Format: cell-based, mice
# Conditions: 2 mM inosine, 48 hours
# Text: FIG. 4A-4K: Effect of inosine on T cell differentiation and dependency on classical dendritic cells of ICB therapy efficacy. (a) Scatter plot of untargeted metabolomics data in the serum of anti-CTLA-4 treated, tumor-bearing B.p. monocolonized compared to C.sp. monocolonized and germ-free (GF) mice. Grey circles or dotted grey circles depict inosine or inosine fragments/adducts, respectively. […] (c) Naïve CD4^+ T cells were co-cultured with bone marrow derived dendritic cells and IFN-γ. Quantification of T-bet^+CD3ε^+CD4^+ T cells 48 hours after co-culture in the presence or absence of inosine, A2A receptor inhibitor (ZM241385), cell permeable cAMP (db-cAMP) and protein kinase A inhibitor (RP-8-CPT-CAMPS). (d) Same as (c) without IFN-γ. (e) Representative plot and quantification (left and right panel) of phospho-CREB (Ser133) levels in naïve CD4^+ T cells cultured with anti-CD3/anti-CD28 coated beads for 1 hour in the presence or absence of inosine. (f) Schematic overview of experimental setup to deplete classical dendritic cells during MC38 tumor challenge and anti-CTLA-4 treatment. Intratumoral (g) frequency of CD8^+ T cells (h) IFN-γ^+CD8^+ T cells. (i and j) same as (g and h), but CD4^+ T cells and (k) tumor weight at […]. Data are mean±SEM and pooled from two individual experiments (a-b) n=5-8 samples/group (c-e) 10-15 biological replicates/group (f-k) 10 mice/group. *, P<0.05; **, P<0.01; ***, P<0.001; ****, P<0.0001
# Bone marrow derived dendritic cells (BMDCs) were generated from flushed bone marrow cells, maintained in RPMI-1640 (Sigma) supplemented with 10% FBS, 50 μm 2-Mercaptoethanol (Sigma) 100 units/ml penicillin, 100 μg/ml streptomycin sulfate and 20 ng/ml rm GM-CSF (R&D). Medium was exchanged after 48 hours and 72 hours. 5 days after culture, a magnetic cell sorting step was performed to enrich for CD11c^+ cells (Miltenyi Biotec). CD11c^+ cells were seeded in 96 flat bottom wells and pulsed with 20 ng/ml OVA323-339 and 100 ng/ml LPS (both Sigma) for 18 hours. In some conditions BMDCs were also cultured with 10 ng/ml rmIFN-γ (R&D).
# Negative selection magnetic cell sorting (Miltenyi Biotec) was used to enrich naïve OT-II CD4^+ T cells. Naïve OT-II CD4^+ T cells were then co-cultured with BMDCs at a ratio of 2:1 or stimulated with anti-CD3/anti-CD28 T cell activation beads (Thermofisher) at a ratio of 1:1 for 48 hours prior to restimulation with PMA/lonomycin in the presence of Brefeldin-A and analysis (see Single cell preparation and flow cytometry for details). In some conditions cells were additionally cultured with various combinations of 2 μg/ml anti-CTLA-4, 100 μM db-cAMP (Sigma), 5 μM ZM 241385 (Sigma), 300 μM Rp-8-CPT-CAMPS (Cayman Chemical) or 2 mM inosine (Sigma) as described previously (He et al., 2017; Yao et al., 2013).
smiles,measurement,setting,value
OC[C@H]1O[C@@H](n2cnc3c(O)ncnc32)[C@H](O)[C@@H]1O [inosine],Th1 induction,in the absence of IFN-γ,reduced Th1 induction
same,Th1 differentiation of naïve T cells (T-bet+),in the presence of exogenous IFN-γ,strongly boosted Th1 differentiation of naïve T cells
